Assay results published in PubChem BioAssay (NCI).
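96-well plates; 48 h exposure; 5 concentrations. Endpoints by linear interpolation between flanking doses. Not reached: highest tested concentration assigned. GI50 marks 50% less growth. TGI marks complete inhibition of growth.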

Experiments:
Test in all cases: NCI anticancer screen, dose series, 48 h
SR leukemia = test system: SR leukemia
NCI-H226 lung = test system: NCI-H226 lung
HL-60(TB) leukemia = test system: HL-60(TB) leukemia
OVCAR-4 ovarian = test system: OVCAR-4 ovarian
UACC-257 melanoma = test system: UACC-257 melanoma
COLO 205 colon = test system: COLO 205 colon
SF-268 CNS = test system: SF-268 CNS
MCF7 breast = test system: MCF7 breast
SK-MEL-28 melanoma = test system: SK-MEL-28 melanoma
MDA-MB-435 = test system: MDA-MB-435
IGROV1 ovarian = test system: IGROV1 ovarian
OVCAR-5 ovarian = test system: OVCAR-5 ovarian
SK-OV-3 ovarian = test system: SK-OV-3 ovarian
CCRF-CEM leukemia = test system: CCRF-CEM leukemia
UACC-62 melanoma = test system: UACC-62 melanoma
SNB-19 CNS = test system: SNB-19 CNS
RXF 393 renal = test system: RXF 393 renal
SF-295 CNS = test system: SF-295 CNS
SNB-75 CNS = test system: SNB-75 CNS
SN12C renal = test system: SN12C renal
BT-549 breast = test system: BT-549 breast
NCI-H23 lung = test system: NCI-H23 lung
HOP-92 NSCLC = test system: HOP-92 NSCLC
EKVX NSCLC = test system: EKVX NSCLC
HCT-15 colon = test system: HCT-15 colon
HCT-116 colon = test system: HCT-116 colon
LOX IMVI melanoma = test system: LOX IMVI melanoma
PC-3 prostate = test system: PC-3 prostate
NCI-H460 lung = test system: NCI-H460 lung
HCC-2998 colon = test system: HCC-2998 colon
M14 melanoma = test system: M14 melanoma
DU-145 prostate = test system: DU-145 prostate
MALME-3M melanoma = test system: MALME-3M melanoma
K-562 leukemia = test system: K-562 leukemia
NCI-H522 lung = test system: NCI-H522 lung
SF-539 CNS = test system: SF-539 CNS
TK-10 renal = test system: TK-10 renal
CAKI-1 renal = test system: CAKI-1 renal
UO-31 renal = test system: UO-31 renal
SK-MEL-5 melanoma = test system: SK-MEL-5 melanoma
ACHN renal = test system: ACHN renal
HOP-62 NSCLC = test system: HOP-62 NSCLC
A498 renal = test system: A498 renal
OVCAR-8 ovarian = test system: OVCAR-8 ovarian
U251 CNS = test system: U251 CNS
786-0 renal = test system: 786-0 renal
SK-MEL-2 melanoma = test system: SK-MEL-2 melanoma
KM12 colon = test system: KM12 colon
HS 578T breast = test system: HS 578T breast
T-47D breast = test system: T-47D breast
MOLT-4 leukemia = test system: MOLT-4 leukemia
MDA-MB-231 breast = test system: MDA-MB-231 breast
MDA-MB-468 breast = test system: MDA-MB-468 breast
A549 NSCLC = test system: A549 NSCLC
HT29 colon = test system: HT29 colon
OVCAR-3 ovarian = test system: OVCAR-3 ovarian
SW-620 colon = test system: SW-620 colon

SMILES: O=C(/C=C/c1ccccc1)c1nc2ccccc2n1Cc1ccc(F)cc1
- GI50 (SR leukemia): 2.99 µM
- TGI (SR leukemia): > 100 µM
- GI50 (NCI-H226 lung): 13.8 µM
- TGI (NCI-H226 lung): 34.4 µM
- GI50 (HL-60(TB) leukemia): 2.44 µM
- TGI (HL-60(TB) leukemia): 12.4 µM
- GI50 (OVCAR-4 ovarian): 11.1 µM
- TGI (OVCAR-4 ovarian): 28.6 µM
- GI50 (UACC-257 melanoma): 4.1 µM
- TGI (UACC-257 melanoma): 17 µM
- GI50 (COLO 205 colon): 3.18 µM
- TGI (COLO 205 colon): 7.86 µM
- GI50 (SF-268 CNS): 7.22 µM
- TGI (SF-268 CNS): 30.2 µM
- GI50 (MCF7 breast): 1.77 µM
- TGI (MCF7 breast): 6.02 µM
- GI50 (SK-MEL-28 melanoma): 2.18 µM
- TGI (SK-MEL-28 melanoma): 5.25 µM
- GI50 (MDA-MB-435): 2.23 µM
- TGI (MDA-MB-435): 5.92 µM
- GI50 (IGROV1 ovarian): 2.33 µM
- TGI (IGROV1 ovarian): 5.89 µM
- GI50 (OVCAR-5 ovarian): 3.31 µM
- TGI (OVCAR-5 ovarian): 11.6 µM
- GI50 (SK-OV-3 ovarian): 18.9 µM
- TGI (SK-OV-3 ovarian): 45.5 µM
- GI50 (CCRF-CEM leukemia): 4.43 µM
- TGI (CCRF-CEM leukemia): > 100 µM
- GI50 (UACC-62 melanoma): 2.42 µM
- TGI (UACC-62 melanoma): 10.4 µM
- GI50 (SNB-19 CNS): 2.13 µM
- TGI (SNB-19 CNS): 5.76 µM
- GI50 (RXF 393 renal): 1.56 µM
- TGI (RXF 393 renal): 3 µM
- GI50 (SF-295 CNS): 3.19 µM
- TGI (SF-295 CNS): 10.8 µM
- GI50 (SNB-75 CNS): 1.72 µM
- TGI (SNB-75 CNS): 10.9 µM
- GI50 (SN12C renal): 3.7 µM
- TGI (SN12C renal): 13.8 µM
- GI50 (BT-549 breast): 2.54 µM
- TGI (BT-549 breast): 7.59 µM
- GI50 (NCI-H23 lung): 2.66 µM
- TGI (NCI-H23 lung): 8.6 µM
- GI50 (HOP-92 NSCLC): 4.03 µM
- TGI (HOP-92 NSCLC): 20.4 µM
- GI50 (EKVX NSCLC): 4.86 µM
- TGI (EKVX NSCLC): 17 µM
- GI50 (HCT-15 colon): 1.75 µM
- TGI (HCT-15 colon): 3.66 µM
- GI50 (HCT-116 colon): 1.92 µM
- TGI (HCT-116 colon): 3.84 µM
- GI50 (LOX IMVI melanoma): 1.62 µM
- TGI (LOX IMVI melanoma): 3.1 µM
- GI50 (PC-3 prostate): 4.13 µM
- TGI (PC-3 prostate): 26.7 µM
- GI50 (NCI-H460 lung): 2.14 µM
- TGI (NCI-H460 lung): 5.38 µM
- GI50 (HCC-2998 colon): 1.83 µM
- TGI (HCC-2998 colon): 3.91 µM
- GI50 (M14 melanoma): 3.17 µM
- TGI (M14 melanoma): 11.4 µM
- GI50 (DU-145 prostate): 3.67 µM
- TGI (DU-145 prostate): 14.2 µM
- GI50 (MALME-3M melanoma): 3.52 µM
- TGI (MALME-3M melanoma): 14.5 µM
- GI50 (K-562 leukemia): 3.1 µM
- TGI (K-562 leukemia): > 100 µM
- GI50 (NCI-H522 lung): 2.42 µM
- TGI (NCI-H522 lung): 5.85 µM
- GI50 (SF-539 CNS): 2.01 µM
- TGI (SF-539 CNS): 4.18 µM
- GI50 (TK-10 renal): 2.9 µM
- TGI (TK-10 renal): 10.4 µM
- GI50 (CAKI-1 renal): 2.97 µM
- TGI (CAKI-1 renal): 12.5 µM
- GI50 (UO-31 renal): 1.77 µM
- TGI (UO-31 renal): 4.21 µM
- GI50 (SK-MEL-5 melanoma): 3.49 µM
- TGI (SK-MEL-5 melanoma): 14.4 µM
- GI50 (ACHN renal): 3.66 µM
- TGI (ACHN renal): 12.6 µM
- GI50 (HOP-62 NSCLC): 3.93 µM
- TGI (HOP-62 NSCLC): 12.6 µM
- GI50 (A498 renal): 18.5 µM
- TGI (A498 renal): 33.1 µM
- GI50 (OVCAR-8 ovarian): 2.56 µM
- TGI (OVCAR-8 ovarian): 6.88 µM
- GI50 (U251 CNS): 1.62 µM
- TGI (U251 CNS): 3.19 µM
- GI50 (786-0 renal): 1.82 µM
- TGI (786-0 renal): 3.49 µM
- GI50 (SK-MEL-2 melanoma): 5.11 µM
- TGI (SK-MEL-2 melanoma): 17.1 µM
- GI50 (KM12 colon): 2.18 µM
- TGI (KM12 colon): 5.01 µM
- GI50 (HS 578T breast): 4.76 µM
- TGI (HS 578T breast): 47.6 µM
- GI50 (T-47D breast): 2.71 µM
- TGI (T-47D breast): 12.1 µM
- GI50 (MOLT-4 leukemia): 3.16 µM
- TGI (MOLT-4 leukemia): > 100 µM
- GI50 (MDA-MB-231 breast): 1.98 µM
- TGI (MDA-MB-231 breast): 4.17 µM
- GI50 (MDA-MB-468 breast): 1.92 µM
- TGI (MDA-MB-468 breast): 3.73 µM
- GI50 (A549 NSCLC): 4.82 µM
- TGI (A549 NSCLC): 21.1 µM
- GI50 (HT29 colon): 3.26 µM
- TGI (HT29 colon): 9.14 µM
- GI50 (OVCAR-3 ovarian): 2 µM
- TGI (OVCAR-3 ovarian): 4.14 µM
- GI50 (SW-620 colon): 2.15 µM
- TGI (SW-620 colon): 4.45 µM
